The source of these data is ChEMBL document CHEMBL1124051 (J Med Chem, 1988).

Data set [1] has as its target Mu-type opioid receptor (Rattus norvegicus) (UniProt P33535). The conditions noted are these: Brain; Membrane.
Data set [2] in a line: Partition coefficient (logP). Format: physicochemical. The conditions noted are these: octanol/water.
Data set [3] addresses Mu-type opioid receptor (Rattus norvegicus) (UniProt P33535). The conditions noted are these: Brain; Membrane. The source holds these as a separate data set.

Chain of Mu-type opioid receptor (Rattus norvegicus) (P33535 whole entry): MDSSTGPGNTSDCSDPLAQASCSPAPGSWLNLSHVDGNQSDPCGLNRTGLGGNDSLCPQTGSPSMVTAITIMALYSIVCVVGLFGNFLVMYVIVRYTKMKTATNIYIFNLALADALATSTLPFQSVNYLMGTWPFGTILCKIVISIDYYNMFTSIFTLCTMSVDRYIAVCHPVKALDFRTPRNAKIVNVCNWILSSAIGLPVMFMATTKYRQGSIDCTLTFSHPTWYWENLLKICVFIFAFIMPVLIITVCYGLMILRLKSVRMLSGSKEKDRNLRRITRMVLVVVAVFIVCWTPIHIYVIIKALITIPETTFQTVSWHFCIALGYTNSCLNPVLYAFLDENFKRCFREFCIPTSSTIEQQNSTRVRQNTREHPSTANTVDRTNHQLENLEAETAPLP

As to `CN1CC[C@]23CCCC[C@H]2[C@H]1Cc1ccc(O)cc13` [LEVORPHANOL], the Kp in data set [1] is 15.6. Also, the logP in data set [2] (read-out: logP) is 1.03. In data set [3], this compound displayed a KT of 20.8.

Compound `CC1C2Cc3ccc(O)cc3C1(C)CCN2Cc1ccoc1` (stereo in doubt; form 2) returned a logP in data set [2] of 2.

Turning to `CC1C2Cc3ccc(O)cc3C1(C)CCN2Cc1ccoc1` (stereo in doubt; form 1), the logP in data set [2] (read-out: logP) came out at 2.25.

Take `CC1C2Cc3ccc(O)cc3C1(C)CCN2Cc1ccco1` (stereo in doubt; form 2): the logP in data set [2] (read-out: logP) was found to be 2.68.

In the case of `C=CCN1CCC2(C)c3cc(O)ccc3CC1C2C` (stereo in doubt; form 2), the lipophilicity (logP) in data set [2] (read-out: logP) stood at 1.73.

On to `CN1CCC23c4c5cccc4OC2C(=O)CCC3(O)C1C5` (configuration not stated), for which, in data set [2] (read-out: logP), the logP was -0.23.

For `CN1CCC23c4c5cccc4OC2C(=O)CCC3C1C5` (configuration not stated), the lipophilicity (logP) in data set [2] (read-out: logP) is 0.4.

As to `C=CCN1CCC23CCCCC2C1Cc1ccc(O)cc13` (configuration not stated), the Kp in data set [1] stood at 20.8. Besides, in data set [2] (read-out: logP), the logP came out at 2.14. In data set [3], this compound gave a KT of 21.6.

Consider `C=CCN1CCC23c4c5cccc4OC2C(O)CCC3C1C5` (configuration not stated), for which the logP in data set [2] (read-out: logP) turned out to be 0.87.

As for `CN1CCC23c4c5ccc(O)c4OC2C(=O)CCC3(O)C1C5` (configuration not stated), the log partition coefficient (logP) in data set [2] (read-out: logP) was -0.42.

With `COc1ccc2c3c1O[C@H]1[C@@H](O)C=C[C@H]4[C@@H](C2)N(C)CC[C@@]341` [CODEINE], the Kp in data set [1] is 11.4. In addition, in data set [2] (read-out: logP), the log partition coefficient (logP) came to 0.25. The compound further returned a KT in data set [3] of 13.3.

With `C=CCN1CCC23c4c5ccc(O)c4OC2C(O)C=CC3C1C5` (configuration not stated), the log partition coefficient (logP) in data set [2] (read-out: logP) came out at 1.22.

Regarding `C[C@H]1[C@@H]2Cc3ccc(O)cc3[C@]1(C)CCN2C` [METAZOCINE], the lipophilicity (logP) in data set [2] (read-out: logP) worked out at 0.47.

For the compound `CN1CCC23c4c5ccc(O)c4OC2C(O)CCC3C1C5` (configuration not stated), the logP in data set [2] (read-out: logP) is -0.51.

`C[C@H]1[C@H]2Cc3ccc(O)cc3[C@]1(C)CCN2CC1CC1` [CYCLAZOCINE] showed a logP in data set [2] of 0.97.

For the compound `CN1CCC23c4c5cccc4OC2CCCC3C1C5` (configuration not stated), the logP in data set [2] (read-out: logP) came to 1.35.

In turn, `CC1C2Cc3ccc(O)cc3C1(C)CCN2Cc1ccco1` (stereo in doubt; form 1) came in with a logP in data set [2] of 2.49.

As to `C=CCN1CCC2(C)c3cc(O)ccc3CC1C2C` (stereo in doubt; form 1), in data set [2], the logP came to 1.58.

Consider `CN1CCC23c4c5cccc4OC2C(O)C=CC3C1C5` (configuration not stated), for which the logP in data set [2] (read-out: logP) amounted to 0.3.

The compound `CN1CC[C@]23c4c5ccc(O)c4O[C@H]2[C@@H](O)C=C[C@H]3[C@H]1C5` gave a Kp in data set [1] of 12.6. In data set [3], this compound returned a KT of 18.8.
